Reference: publication PMC7265341, “Quantifying CDK inhibitor selectivity in live cells” (Nature Communications, 2020)
Like-named read-outs stand apart in the source and are kept apart here.

Legend:
Assay type in all cases: binding
CDK6/Cyclin D1 = CDK6/Cyclin D1 (Homo sapiens, UniProt Q00534); experiment: NanoBRET live-cell target engagement, NanoLuc-CDK6/Cyclin D1 in HEK-293; conditions: for IC50: read-out: IC50
CDK18/Cyclin Y = CDK18/Cyclin Y (Homo sapiens, UniProt Q07002); experiment: NanoBRET live-cell target engagement, CDK18-NanoLuc/Cyclin Y in HEK-293; conditions: for IC50: read-out: IC50
all 21 human CDKs = experiment: Live-cell selectivity profile across all 21 CDK/cyclin complexes in HEK-293; conditions: remaining CDK family, live HEK-293; read-out: Collateral CDK (potency)
[1] = CDK6/D1, average, read-out: Inhibition at 10µM (%)
[2] = CDK6/D1, experiment 1, read-out: Inhibition at 10µM (%)
[3] = CDK6/D1, experiment 2, read-out: Inhibition at 10µM (%)
[4] = read-out: Inhibition at 10µM (%), CDK18/Y, average
[5] = read-out: Inhibition at 10µM (%), CDK18/Y, experiment 1
[6] = read-out: Inhibition at 10µM (%), CDK18/Y, experiment 2

Chain of CDK6/Cyclin D1 (Q00534 whole entry): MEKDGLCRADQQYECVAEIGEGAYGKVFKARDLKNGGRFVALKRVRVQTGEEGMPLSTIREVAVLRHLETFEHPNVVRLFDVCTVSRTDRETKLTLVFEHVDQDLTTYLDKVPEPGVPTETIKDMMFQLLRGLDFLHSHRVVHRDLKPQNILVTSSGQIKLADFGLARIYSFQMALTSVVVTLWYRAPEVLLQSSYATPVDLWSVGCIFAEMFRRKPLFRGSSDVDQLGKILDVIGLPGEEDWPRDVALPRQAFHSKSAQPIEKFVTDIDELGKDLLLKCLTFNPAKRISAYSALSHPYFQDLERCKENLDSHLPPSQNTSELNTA
Chain of CDK6/Cyclin D1 (P24385 whole entry partner): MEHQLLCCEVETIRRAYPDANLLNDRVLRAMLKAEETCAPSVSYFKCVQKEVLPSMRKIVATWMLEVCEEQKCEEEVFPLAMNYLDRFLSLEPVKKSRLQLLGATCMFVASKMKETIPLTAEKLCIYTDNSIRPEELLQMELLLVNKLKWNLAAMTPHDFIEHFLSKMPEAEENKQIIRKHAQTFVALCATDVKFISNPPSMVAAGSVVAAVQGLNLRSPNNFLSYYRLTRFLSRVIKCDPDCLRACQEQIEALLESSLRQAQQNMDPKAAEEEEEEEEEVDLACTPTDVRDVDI
Chain of CDK18/Cyclin Y (Q07002 whole entry): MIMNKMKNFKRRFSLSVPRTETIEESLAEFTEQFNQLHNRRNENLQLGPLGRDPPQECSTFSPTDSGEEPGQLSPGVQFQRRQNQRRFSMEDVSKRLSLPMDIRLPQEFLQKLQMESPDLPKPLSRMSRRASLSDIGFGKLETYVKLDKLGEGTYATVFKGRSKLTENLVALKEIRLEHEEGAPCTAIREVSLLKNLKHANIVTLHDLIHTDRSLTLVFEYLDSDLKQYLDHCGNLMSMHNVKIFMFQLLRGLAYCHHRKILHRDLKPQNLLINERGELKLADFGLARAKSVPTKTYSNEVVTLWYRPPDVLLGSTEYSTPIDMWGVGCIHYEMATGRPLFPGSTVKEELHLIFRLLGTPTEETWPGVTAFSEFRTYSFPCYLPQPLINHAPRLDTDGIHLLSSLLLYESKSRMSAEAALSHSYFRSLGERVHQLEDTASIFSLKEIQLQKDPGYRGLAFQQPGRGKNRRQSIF
Chain of CDK18/Cyclin Y (Q8ND76 whole entry partner): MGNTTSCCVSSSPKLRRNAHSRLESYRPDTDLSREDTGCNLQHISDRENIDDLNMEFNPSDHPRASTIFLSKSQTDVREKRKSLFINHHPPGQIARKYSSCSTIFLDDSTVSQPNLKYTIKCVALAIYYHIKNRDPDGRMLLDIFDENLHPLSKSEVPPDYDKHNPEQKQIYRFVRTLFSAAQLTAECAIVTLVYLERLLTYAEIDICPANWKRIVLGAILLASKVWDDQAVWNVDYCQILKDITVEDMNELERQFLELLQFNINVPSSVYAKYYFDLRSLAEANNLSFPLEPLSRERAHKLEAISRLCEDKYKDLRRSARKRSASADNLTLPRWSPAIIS

COC1CN(C(=O)c2ccc3c(N)ncc(-c4ccc(-c5cnn(C)c5)cc4)c3n2)C1 [CCT251545 analog]
inhibition at 10 µM (CDK6/Cyclin D1; [1]): 17.9%
inhibition at 10 µM (CDK6/Cyclin D1; [2]): 15.1%
inhibition at 10 µM (CDK6/Cyclin D1; [3]): 20.8%
inhibition at 10 µM (CDK18/Cyclin Y; [4]): 0.4%
inhibition at 10 µM (CDK18/Cyclin Y; [5]): -7.3%
inhibition at 10 µM (CDK18/Cyclin Y; [6]): 8.1%
IC50 (all 21 human CDKs): > 1 µM

CN(C)C/C=C/C(=O)Nc1ccc(C(=O)N2CCC[C@@H](Nc3ncc(Cl)c(-c4c[nH]c5ccccc45)n3)C2)cc1 [THZ531]
inhibition at 10 µM (CDK6/Cyclin D1; 10µM, average of experiments, read-out: CDK6/D1 Inhibition at 10µM (%)): 36.6%
inhibition at 10 µM (CDK6/Cyclin D1; 10µM, independent experiment 1, read-out: CDK6/D1 Inhibition at 10µM (%)): 32%
inhibition at 10 µM (CDK6/Cyclin D1; 10µM, independent experiment 2, read-out: CDK6/D1 Inhibition at 10µM (%)): 41.3%
inhibition at 10 µM (CDK18/Cyclin Y; 10µM, average of experiments, read-out: CDK18/Y Inhibition at 10µM (%)): 64.6%
inhibition at 10 µM (CDK18/Cyclin Y; 10µM, independent experiment 1, read-out: CDK18/Y Inhibition at 10µM (%)): 71.7%
inhibition at 10 µM (CDK18/Cyclin Y; 10µM, independent experiment 2, read-out: CDK18/Y Inhibition at 10µM (%)): 57.6%
IC50 (all 21 human CDKs): > 1 µM

CN1CCC(c2c(O)cc(O)c3c(=O)cc(-c4ccccc4Cl)oc23)C1CO (stereo not shown) [P276-00]
Inhibition at 10µM (%) (CDK6/Cyclin D1; CDK6/D1, average): 83.0%
IC50 (CDK6/Cyclin D1; CDK6/D1, average (± SEM where n=3)): 0.5 ± 0.1 µM
Inhibition at 10µM (%) (CDK6/Cyclin D1; CDK6/D1, experiment 1): 78.3%
IC50 (CDK6/Cyclin D1; CDK6/D1, experiment 1): 0.55 µM
Inhibition at 10µM (%) (CDK6/Cyclin D1; CDK6/D1, experiment 2): 87.7%
IC50 (CDK6/Cyclin D1; CDK6/D1, experiment 2): 0.22 µM
IC50 (CDK6/Cyclin D1; CDK6/D1, experiment 3): 0.659 µM
Inhibition at 10µM (%) (CDK18/Cyclin Y; CDK18/Y, average): 57.3%
Inhibition at 10µM (%) (CDK18/Cyclin Y; CDK18/Y, experiment 1): 55.4%
Inhibition at 10µM (%) (CDK18/Cyclin Y; CDK18/Y, experiment 2): 59.3%

CN1CCN(Cc2ccc(NC(=O)Nc3ccc(Oc4ccnc(N)n4)cc3)cc2C(F)(F)F)CC1 [K03861]
inhibition at 10 µM (CDK6/Cyclin D1; [1]): 35.2%
inhibition at 10 µM (CDK6/Cyclin D1; [2]): 23.8%
inhibition at 10 µM (CDK6/Cyclin D1; [3]): 46.5%
IC50 (CDK18/Cyclin Y; CDK18/Y, average (± SEM where n=3)): 0.4 ± 0.1 µM
inhibition at 10 µM (CDK18/Cyclin Y; CDK18/Y, average, read-out: Inhibition at 10µM (%)): 93.7%
IC50 (CDK18/Cyclin Y; CDK18/Y, experiment 1): 0.144 µM
inhibition at 10 µM (CDK18/Cyclin Y; CDK18/Y, experiment 1, read-out: Inhibition at 10µM (%)): 88.2%
IC50 (CDK18/Cyclin Y; CDK18/Y, experiment 2): 0.408 µM
inhibition at 10 µM (CDK18/Cyclin Y; CDK18/Y, experiment 2, read-out: Inhibition at 10µM (%)): 99.2%
IC50 (CDK18/Cyclin Y; CDK18/Y, experiment 3): 0.61 µM

COc1ccccc1-c1cc(Nc2cccc(CS(N)(=O)=O)c2)ncn1 [LDC000067]
inhibition at 10 µM (CDK6/Cyclin D1; [1]): 38.7%
inhibition at 10 µM (CDK6/Cyclin D1; [2]): 31.9%
inhibition at 10 µM (CDK6/Cyclin D1; [3]): 45.4%
inhibition at 10 µM (CDK18/Cyclin Y; [4]): 8.7%
inhibition at 10 µM (CDK18/Cyclin Y; [5]): 5.1%
inhibition at 10 µM (CDK18/Cyclin Y; [6]): 12.3%
